Data: PubChem BioAssay (NCI)
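Cells were grown in 96-well plates and exposed to each compound for 48 hours at five concentrations; endpoints were interpolated linearly between bracketing concentrations, or set to the highest concentration if not reached. GI50: concentration for 50% inhibition of growth. TGI denotes the concentration required for complete inhibition of growth.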

Tested on: MDA-MB-468 breast
Assay: inhibition of tumour cell growth, NCI panel, 48 h

**Q.** O=C1c2ccccc2C(=O)c2c(NCCN=Cc3ccccc3O)cccc21 was tested. Which GI50 did it give?
**A.** 1690 nM

**Q.** And the TGI?
**A.** 4420 nM

**Q.** How did the GI50 turn out when O=C(CCN1CCOCC1)Nc1cccc(-n2cc(-c3ccncc3)c(-c3ccc(Cl)c(O)c3)n2)c1 was run?
**A.** 1250 nM

**Q.** And the TGI?
**A.** 3950 nM

**Q.** Which GI50 does the source give for CC1(C)N=C(N)N=C(N)N1c1cccc(OCCOc2cccc([N+](=O)[O-])c2)c1 here?
**A.** 463 nM

**Q.** And the TGI?
**A.** 21600 nM

**Q.** For CCOC(=O)C1=C(N)Oc2c(sc3c(C)cccc23)C1c1ccc(F)cc1 (stereo unspecified), which GI50 is on record?
**A.** 1160 nM

**Q.** And the TGI?
**A.** 8800 nM

**Q.** O=C(Nc1ccc(Cl)cc1)Nc1nccs1 was tested. Which GI50 did it give?
**A.** 398 nM

**Q.** And the TGI?
**A.** 3700 nM

**Q.** With NCCCOc1cc(Cl)ccc1NC(=O)c1cc2ccccc2cc1OCCCN as the compound, how does the GI50 read?
**A.** 543 nM

**Q.** What about the TGI of the same compound?
**A.** 1890 nM

**Q.** For COc1ccc(-c2cc(Nc3ccnc(N4CCOCC4)n3)on2)cc1, which GI50 is on record?
**A.** 375 nM

**Q.** And the TGI?
**A.** 2490 nM

**Q.** How did the GI50 turn out when Cc1noc2c1-c1ccccc1C(c1ccc(Cl)cc1)=N[C@H]2CC(N)=O was run?
**A.** 1500 nM

**Q.** What about the TGI of the same compound?
**A.** > 64500 nM

**Q.** Which GI50 does the source give for Nc1c(C(=O)Nc2ccccc2Cl)sc2nc3c(cc12)C(=O)CCC3 here?
**A.** 324 nM

**Q.** What about the TGI of the same compound?
**A.** 5420 nM

**Q.** Which GI50 does the source give for COc1ccc(-c2ccc(NNC(=O)c3ccc(F)cc3)nn2)cc1OC here?
**A.** 64300 nM

**Q.** What about the TGI of the same compound?
**A.** > 100000 nM

**Q.** For COc1ccc(-c2nn(-c3cccc(Cl)c3)cc2-c2nc(N)[nH]c(=O)c2C#N)cc1, which GI50 is on record?
**A.** 2120 nM

**Q.** What about the TGI of the same compound?
**A.** 6430 nM

**Q.** What does the source list for Oc1ccc(Oc2cnc3ccccc3n2)cc1?
**A.** GI50: 49400 nM; TGI: > 100000 nM

**Q.** Which results are given for Oc1ccc(N=Nc2nccs2)c(O)c1?
**A.** GI50: 4760 nM; TGI: > 100000 nM

**Q.** NC(N)=N/N=C(\N=Nc1ccccc1)c1ccc(Cl)cc1 was tested. Which GI50 did it give?
**A.** 2120 nM

**Q.** And the TGI?
**A.** 5410 nM

**Q.** Which GI50 does the source give for CNCCn1c(=O)c2cc(OC)c(OC)cc2c2cnc3cc4c(cc3c21)OCO4 here?
**A.** < 10 nM

**Q.** And the TGI?
**A.** < 17.7 nM

**Q.** NC(=O)CNc1ccc([As]=[As]c2ccc(NCC(N)=O)cc2)cc1 (stereo unspecified) was tested. Which GI50 did it give?
**A.** 1130 nM

**Q.** And the TGI?
**A.** 4090 nM

**Q.** How did the GI50 turn out when C=CCn1c(SCC(=O)Nc2ccc(C(=O)/C=C/c3cc(OC)c(OC)c(OC)c3)cc2)nnc1-c1ccc(OC)cc1 was run?
**A.** 654 nM

**Q.** And the TGI?
**A.** 2570 nM

**Q.** For CNC(C)[C@H]1CCC2C3CC=C4C(=O)[C@@H](NC(=O)C=C(C)C)CC[C@]4(C)C3CC[C@@]21C (stereo partly specified), which GI50 is on record?
**A.** 939 nM

**Q.** What about the TGI of the same compound?
**A.** 2910 nM

**Q.** C=C(C)[C@@H]1CC[C@]2(C)[C@H](CC[C@@H]3[C@@H]([C@@](C)(O)CCC=C(C)C)CC[C@]32C)[C@@]1(C)CCC(=O)O was tested. Which GI50 did it give?
**A.** 22400 nM

**Q.** What about the TGI of the same compound?
**A.** 60400 nM

**Q.** Which GI50 does the source give for Cn1cc(-c2csc(-c3cn(C)c4ccc(F)cc34)n2)c2cnccc21 here?
**A.** 1860 nM

**Q.** What about the TGI of the same compound?
**A.** 3530 nM

**Q.** With O=C(NNc1cnccn1)c1nc2cc(F)ccc2n2cccc12 as the compound, how does the GI50 read?
**A.** 419 nM

**Q.** What about the TGI of the same compound?
**A.** 3030 nM

**Q.** How did the GI50 turn out when O=C(NC1CCCCC1)c1ccc(Nc2ncnc3c2cnn3-c2ccccc2)cc1 was run?
**A.** 21700 nM

**Q.** What about the TGI of the same compound?
**A.** > 100000 nM

**Q.** Which results are given for O=C1/C(=C/N2N=C(c3ccc4ccccc4c3)CC2c2ccccc2O)SC(=S)N1c1cccnc1 (stereo unspecified)?
**A.** GI50: 1060 nM; TGI: 5330 nM
